Test results from US8076352B2, “Administration of carboline derivatives useful in the treatment of cancer and other diseases” (PTC Therapeutics, Inc., priority 2004, dated 2011).

Tested on: hypoxia-inducible endogenous VEGF expression in HeLa cells
Test: Hypoxia-inducible endogenous VEGF expression, VEGF ELISA of conditioned media (dose-response EC50)
Type: cell-based
Conditions: HeLa cells, hypoxic conditions (1% O2)
Description: The ability of the compounds of the invention to modulate hypoxia-inducible endogenous VEGF expression may be analyzed as follows. VEGF protein levels may be monitored by an ELISA assay (R&D Systems). Briefly, HeLa cells may be cultured for 24-48 hours under hypoxic conditions (1% O2, 5% CO2, balanced with nitrogen) in the presence or absence of a compound of the invention. The conditioned media may then be assayed by ELISA, and the concentration of VEGF calculated from the standard ELISA curve of each assay.
A dose-response analysis may be performed using the ELISA assay and conditions described above. The conditions for the dose-response ELISA are analogous to those described above. A series of, e.g., seven different concentrations may be analyzed. […] Dose-response curves may be plotted using percentage inhibition versus concentration of the compound, and EC50 and CC50 values may be generated for each compound with the maximal inhibition set as 100% and the minimal inhibition as 0%.

Row | Structure (SMILES) | EC50
1 | CN(C)CCCOc1ccc(C2c3[nH]c4ccc(Cl)cc4c3CCN2C(=O)Oc2ccc(Cl)cc2)cc1 (centres unmarked) [Compound 479] | 40 to 200 nM
2 | O=C(Oc1ccc(Cl)cc1)N1CCc2c([nH]c3ccc(Cl)cc23)C1c1ccc(S(=O)(=O)N2CCOCC2)cc1 (centres unmarked) [Compound 450] | 8 to 40 nM

Same assay, conditions: Homo sapiens, HeLa cells under hypoxic conditions

Row | Structure (SMILES) | EC50
3 | Fc1cc(F)cc(C2NCCc3c2[nH]c2ccc(Cl)cc32)c1 (centres unmarked) [Compound 173] | 200 to 1000 nM
4 | COc1ccc(C2NCCc3c2[nH]c2ccc(F)cc32)cc1 (centres unmarked) [Compound 315] | > 1000 nM
5 | Clc1ccc(C2NCCc3c2[nH]c2ccc(Br)cc32)c(Cl)c1 (centres unmarked) [Compound 135] | 40 to 200 nM
6 | Oc1ccc(Br)cc1C1NCCc2c1[nH]c1ccc(Br)cc21 (centres unmarked) [Compound 382] | > 1000 nM
7 | c1ccc(COc2ccc(C3NCCc4c3[nH]c3ccc(OCc5ccccc5)cc43)cc2)cc1 (centres unmarked) [Compound 288] | > 1000 nM
8 | Cc1ccc(C2NCCc3c2[nH]c2ccc(Br)cc32)cc1 (centres unmarked) [Compound 156] | 40 to 200 nM
9 | Clc1ccc(C2NCCc3c2[nH]c2ccc(Cl)cc32)cc1 (centres unmarked) [Compound 190] | 200 to 1000 nM
10 | FC(F)(F)c1ccc(C2NCCc3c2[nH]c2ccc(Cl)cc32)cc1 (centres unmarked) [Compound 159] | 40 to 200 nM
11 | COc1ccc(C2c3[nH]c4ccc(C)cc4c3CCN2c2cnccn2)cc1 (centres unmarked) [Compound 343] | > 1000 nM
12 | COc1ccc(C2NCCc3c2[nH]c2ccc(Br)cc32)cc1O (centres unmarked) [Compound 379] | > 1000 nM
13 | CC(=O)N1CCc2c([nH]c3ccc(Br)cc23)C1c1cccc(C(F)(F)F)c1 (centres unmarked) [Compound 80] | 8 to 40 nM
14 | Clc1ccc2[nH]c3c(c2c1)CCNC3c1ccc(OCCN2CCOCC2)cc1 (centres unmarked) [Compound 363] | > 1000 nM

The remaining lines, values ahead:

Row | EC50 | Structure (SMILES)
15 | > 1000 nM | O=C(COc1ccc(C2c3[nH]c4ccc(Cl)cc4c3CCN2C(=O)Oc2ccccc2)cc1)Oc1ccccc1 (centres unmarked) [Compound 366]
16 | < 8 nM | CCOC(=O)N1CCc2c([nH]c3ccc(Cl)cc23)C1c1cccc(Cl)c1 (centres unmarked) [Compound 20]
17 | < 8 nM | COC(=O)N1CCc2c([nH]c3ccc(Cl)cc23)C1c1ccc(OCCCn2ccnc2)cc1 (centres unmarked) [Compound 386]
18 | 40 to 200 nM | COc1ccc(OC(=O)N2CCc3c([nH]c4ccc(Cl)cc34)C2c2ccc(S(C)(=O)=O)cc2)cc1 (centres unmarked) [Compound 359]
19 | 40 to 200 nM | CCOC(=O)N1CCc2c([nH]c3ccc(Cl)cc23)C1c1cccc(O)c1 (centres unmarked) [Compound 165]
20 | 200 to 1000 nM | Clc1ccc2[nH]c3c(c2c1)CCNC3c1ccccc1 (centres unmarked) [Compound 216]
21 | < 8 nM | CCCOC(=O)N1CCc2c([nH]c3ccc(Cl)cc23)C1c1ccc(OC)cc1 (centres unmarked) [Compound 28]
22 | 8 to 40 nM | O=C(OCCCl)N1CCc2c([nH]c3ccc(Cl)cc23)C1c1cccc(Br)c1 (centres unmarked) [Compound 99]
23 | 200 to 1000 nM | CS(=O)(=O)N1CCc2c([nH]c3ccc(Cl)cc23)C1c1ccc(OCc2ccccc2)cc1 (centres unmarked) [Compound 225]
24 | 40 to 200 nM | CCOC(=O)N1CCc2c([nH]c3ccc(Cl)cc23)C1c1cc(=O)c2ccccc2o1 (centres unmarked) [Compound 126]
25 | < 8 nM | CCOC(=O)N1CCc2c([nH]c3ccc(Cl)cc23)C1c1cccc(C(F)(F)F)c1 (centres unmarked) [Compound 37]
26 | < 8 nM | CCOC(=O)N1CCc2c([nH]c3ccc(Br)cc23)C1c1cccc(F)c1F (centres unmarked) [Compound 29]
27 | < 8 nM | CC(C)c1ccc(C2c3[nH]c4ccc(Cl)cc4c3CCN2C(=O)Oc2ccc(Cl)cc2)cc1 (centres unmarked) [Compound 348]
28 | 40 to 200 nM | COc1ccc(C2c3[nH]c4ccc(Cl)cc4c3CCN2C(=O)Nc2cccc(OC)c2)cc1 (centres unmarked) [Compound 164]
29 | > 1000 nM | Clc1ccc2[nH]c3c(c2c1)CCN(Cc1ccoc1)C3c1nccs1 (centres unmarked) [Compound 270]
30 | > 1000 nM | CCNC(=O)N1CCc2c([nH]c3ccccc23)C1c1ccc(OC)cc1 (centres unmarked) [Compound 307]
31 | < 8 nM | O=C(OCCCl)N1CCc2c([nH]c3ccc(Cl)cc23)C1c1cc(F)ccc1F (centres unmarked) [Compound 22]
32 | 40 to 200 nM | CC(C)NC(=S)N1CCc2c([nH]c3ccc(Br)cc23)C1c1ccccc1 (centres unmarked) [Compound 158]
33 | 8 to 40 nM | CCOC(=O)N1CCc2c([nH]c3ccc(Cl)cc23)C1c1ccc2c(c1)OCO2 (centres unmarked) [Compound 113]

Same assay, conditions: Homo sapiens, HeLa cells, hypoxic conditions (1% O2)

Row | Structure (SMILES) | EC50
34 | O=C(Oc1ccc(F)cc1)Oc1ccc(C2c3[nH]c4ccc(Cl)cc4c3CCN2C(=O)Oc2ccc(F)cc2)cc1 (centres unmarked) [Compound 576] | 40 to 200 nM
35 | CC(=O)N1CCN(CC(O)COc2ccc(C3c4[nH]c5ccc(Cl)cc5c4CCN3C(=O)Oc3ccc(F)cc3)cc2)CC1 (centres unmarked) [Compound 637] | < 8 nM
36 | COCCCNCCCCOc1ccc(C2c3[nH]c4ccc(Cl)cc4c3CCN2C(=O)Oc2ccc(Cl)cc2)cc1 (centres unmarked) [Compound 701] | 8 to 40 nM
37 | O=C(Oc1ccc(F)cc1)N1CCc2c([nH]c3ccc(Cl)cc23)C1c1ccc(OCCCCCCN2CCCCC2)cc1 (centres unmarked) [Compound 777] | < 8 nM
38 | O=C(Oc1ccc(Cl)cc1)N1CCc2c([nH]c3ccc(Cl)cc23)C1c1ccc(OCCCCCCN2CCCC2)cc1 (centres unmarked) [Compound 783] | < 8 nM
39 | O=C(Oc1ccc(Cl)cc1)N1CCc2c([nH]c3ccc(Cl)cc23)C1c1ccc(OCCCCCCN2CCCCC2)cc1 (centres unmarked) [Compound 787] | < 8 nM
40 | O=C(Oc1ccc(Cl)cc1)N1CCc2c([nH]c3ccc(Cl)cc23)C1c1ccc(OCCCCCCNCCO)cc1 (centres unmarked) [Compound 782] | < 8 nM
41 | CC(C)NCCCCCCOc1ccc(C2c3[nH]c4ccc(Cl)cc4c3CCN2C(=O)Oc2ccc(F)cc2)cc1 (centres unmarked) [Compound 774] | 8 to 40 nM
42 | O=C(Oc1ccc(Cl)cc1)N1CCc2c([nH]c3ccc(Cl)cc23)C1c1ccc(OCCCCCCn2cncn2)cc1 (centres unmarked) [Compound 791] | < 8 nM
43 | CC(C)(C)OC(=O)N1CCCC1C(=O)Oc1ccc(C2c3[nH]c4ccc(Cl)cc4c3CCN2C(=O)OC(C)(C)C)cc1 (centres unmarked) [Compound 424] | < 8 nM
44 | O=C(Oc1ccc(Cl)cc1)N1CCc2c([nH]c3ccc(Cl)cc23)C1c1ccc(OCCCCCCn2ccnc2)cc1 (centres unmarked) [Compound 790] | < 8 nM

The next lines start with the values.

Row | EC50 | Structure (SMILES)
45 | 40 to 200 nM | CCOC(=O)N1CCc2c([nH]c3ccc(Cl)cc23)C1C1CC=CCC1 (centres unmarked) [Compound 504]
46 | 8 to 40 nM | COCCOCCOc1ccc(C2c3[nH]c4ccc(Cl)cc4c3CCN2C(=O)Oc2ccc([N+](=O)[O-])cc2)cc1 (centres unmarked) [Compound 681]
47 | 40 to 200 nM | O=C(Oc1ccccc1Cl)N1CCc2c([nH]c3ccc(Cl)cc23)C1c1ccc(C(F)(F)F)cc1 (centres unmarked) [Compound 594]
48 | < 8 nM | Cc1ccc(OC(=O)N2CCc3c([nH]c4ccc(Cl)cc34)C2c2ccc(OCC(O)CO)cc2)cc1 (centres unmarked) [Compound 631]
49 | 8 to 40 nM | O=C(Oc1ccc([N+](=O)[O-])cc1)N1CCc2c([nH]c3ccc(Cl)cc23)C1c1ccc(OCC(O)CO)cc1 (centres unmarked) [Compound 632]
50 | 8 to 40 nM | CCOC(=O)N1CCc2c([nH]c3ccc(Cl)cc23)C1c1ccc(OCCCN2CCCC2)cc1 (centres unmarked) [Compound 449]
51 | 40 to 200 nM | O=C(Oc1ccc(Cl)cc1)N1CCc2c([nH]c3ccc(Cl)cc23)C1c1ccc(O)cc1 (centres unmarked) [Compound 577]
52 | 40 to 200 nM | O=C(Oc1ccccc1Cl)N1CCc2c([nH]c3ccc(Cl)cc23)C1c1ccc(OCC(O)CO)cc1 (centres unmarked) [Compound 628]
53 | < 8 nM | O=C1OCC(COc2ccc(C3c4[nH]c5ccc(Cl)cc5c4CCN3C(=O)Oc3ccc(Cl)cc3)cc2)O1 (centres unmarked) [Compound 421]
54 | < 8 nM | C=CCOc1ccc(C2c3[nH]c4ccc(Cl)cc4c3CCN2C(=O)OCCC)cc1 (centres unmarked) [Compound 406]
55 | 40 to 200 nM | CCOC(=O)N1CCc2c([nH]c3ccc(Br)cc23)C1c1ccc(C(=O)NC)cc1 (centres unmarked) [Compound 480]
56 | 8 to 40 nM | O=C(Oc1ccc(Cl)cc1)N1CCc2c([nH]c3ccc(Cl)cc23)C1c1ccc(OCC2CO2)cc1 (centres unmarked) [Compound 460]
57 | < 8 nM | COc1ccc(C2c3[nH]c4ccc(Cl)cc4c3CCN2C(=O)Oc2ccc(F)cc2)cc1 (centres unmarked) [Compound 401]
58 | 200 to 1000 nM | CCOC(=O)N1CCc2c([nH]c3ccc(Cl)cc23)C1c1ccc(C(N)=O)cc1 (centres unmarked) [Compound 542]
59 | < 8 nM | COCCOCCOc1ccc(C2c3[nH]c4ccc(Cl)cc4c3CCN2C(=O)Oc2ccccc2)cc1 (centres unmarked) [Compound 670]
60 | 40 to 200 nM | CCOC(=O)N1CCc2c([nH]c3ccc(Cl)cc23)C1c1coc2ccccc2c1=O (centres unmarked) [Compound 499]

Same assay, conditions: Homo sapiens, HeLa cells, hypoxic conditions (1% O2, 5% CO2)

Row | EC50 | Structure (SMILES)
61 | < 8 nM | O=C(Oc1ccc(Cl)cc1)N1CCc2c([nH]c3ccc(Cl)cc23)C1c1ccc(OCC(O)Cn2cncn2)cc1 (centres unmarked) [Compound 996]
62 | < 8 nM | O=C(Oc1ccc(F)cc1)N1CCc2c([nH]c3ccc(Cl)cc23)C1c1ccc(OCC(O)Cn2ccnc2)cc1 (centres unmarked) [Compound 922]
63 | < 8 nM | O=C(Oc1ccc(Cl)cc1)N1CCc2c([nH]c3ccc(Cl)cc23)C1c1ccc(OCCCn2ccnc2)cc1 (centres unmarked) [Compound 917]
64 | 40 to 200 nM | O=C(Oc1ccc(F)cc1)N1CCc2c([nH]c3ccc(Cl)cc23)C1c1ccc(OCCn2ccnn2)cc1 (centres unmarked) [Compound 833]
65 | < 8 nM | O=C(Oc1ccc(F)cc1)N1CCc2c([nH]c3ccc(Cl)cc23)C1c1ccc(OCC(O)Cn2ccnn2)cc1 (centres unmarked) [Compound 941]
66 | < 8 nM | O=C(Oc1ccc(F)cc1)N1CCc2c([nH]c3ccc(Cl)cc23)C1c1ccc(OCCCn2ccnc2)cc1 (centres unmarked) [Compound 889]

Row | Structure (SMILES) | EC50
67 | CN1CCCC(COc2ccc(C3c4[nH]c5ccc(Cl)cc5c4CCN3C(=O)Oc3ccccc3Cl)cc2)C1 (centres unmarked) [Compound 976] | 40 to 200 nM
68 | CN1CCN(CCCOc2ccc(C3c4[nH]c5ccc(Cl)cc5c4CCN3C(=O)Oc3ccc(Cl)cc3)cc2)CC1 (centres unmarked) [Compound 961] | 8 to 40 nM
69 | O=C(Oc1ccc(Cl)cc1)N1CCc2c([nH]c3ccc(Cl)cc23)C1c1ccc(OCC(O)CN2CCN(CCO)CC2)cc1 (centres unmarked) [Compound 960] | 8 to 40 nM
70 | Cc1ccc(OC(=O)N2CCc3c([nH]c4ccc(Cl)cc34)C2c2ccc(OCC3CCCN(C)C3)cc2)cc1 (centres unmarked) [Compound 951] | 8 to 40 nM
71 | CCN(CC)CC(O)COc1ccc(C2c3[nH]c4ccc(Cl)cc4c3CCN2C(=O)Oc2ccc(Cl)cc2)cc1 (centres unmarked) [Compound 938] | < 8 nM
